According to US20240132498A1, “CRYSTALLINE FORMS OF 5-(3,4-DIFLUOROBENZYL)-8-((1R,4R)-4-METHYLCYCLOHEXYL)-6,9-DIOXO-2,5,8-TRIAZASPIRO[3.5]NONANE-2-CARBALDEHYDE” (Cytokinetics, Incorporated, priority 2022, published 2024):
Values belong to the compound of their own block, whether it stands above or below them.

How the values were obtained:
Assay type in all cases: physicochemical
[1] = Short-term static storage stability of the solid (XRPD, HPLC)
Method: Purity analysis was performed on an Agilent HP1100/Infinity 111260 series system equipped with a diode array detector and using OpenLAB software. The full method details are provided below.
For short-term (8 days or fewer) stability experiments, solid material was placed into open vials at elevated storage conditions, unless otherwise stated. These conditions were achieved using saturated salt solutions at specific temperatures within sealed containers. Storage containers were pre-equilibrated prior to input of samples.

[2] = Competitive slurry experiments between Form I and Form II; settings: competitive slurry
From the text: The results of the competitive slurry experiments are provided below in Table 6.

[3] = Polymorph screening with liquid assisted grinding (LAG), XRPD outcome
Method: 30 mg of amorphous 5-(3,4-difluorobenzyl)-8-((1r,4r)-4-methylcyclohexyl)-6,9-dioxo-2,5,8-triazaspirol[3.5]nonane-2-carbaldehyde was wetted with solvent (5 μL). Two grinding beads (3 mm diameter) were added and the samples were ground for 2 hours at 500 rpm using a planetary Fritsch Mill (Pulverisette 6). After grinding all solids were analysed by XRPD.
Gums were stored at ambient conditions. Gums and samples containing brittle material were dried in-vacuo at R. T. in a vacuum oven overnight (ca. 200 mbar). Observations were recorded and the samples were further dried in-vacuo at R. T. in a vacuum oven overnight (ca. 5 mbar). Where gums still persisted, the samples were further dried in-vacuo at R. T. in a vacuum oven (ca. 5 mbar) for 3 days. The observations and XRPD analysis are provided in Table 5-G. Further treatment details of gums and brittle materials are summarized in Table 5-H.

[4] = Storage at 40° C./75% RH for 7 days

XRPD [1, 4]: converted to crystalline Form II
Structure (SMILES): C1COCCO1.C[C@H]1CC[C@H](N2CC(=O)N(Cc3ccc(F)c(F)c3)C3(CN(C=O)C3)C2=O)CC1 [Form III, 5-(3,4-difluorobenzyl)-8-((1r,4r)-4-methylcyclohexyl)-6,9-dioxo-2,5,8-triazaspiro[3.5]nonane-2-carbaldehyde 1,4-dioxane solvate]

HPLC purity ([1]; Before Storage): 96.3%
XRPD ([1]; Before Storage): Form I
XRPD ([1]; Storage at 25° C./97% RH for 7 days): Unchanged by XRPD
XRPD [1, 4]: Unchanged by XRPD
Structure (SMILES): C[C@H]1CC[C@H](N2CC(=O)N(Cc3ccc(F)c(F)c3)C3(CN(C=O)C3)C2=O)CC1 [Form I, 5-(3,4-difluorobenzyl)-8-((1r,4r)-4-methylcyclohexyl)-6,9-dioxo-2,5,8-triazaspiro[3.5]nonane-2-carbaldehyde]

XRPD ([2]; EtOAc, 5 °C): Form II
XRPD ([2]; EtOAc/cyclohexane (50:50 v/v), 5 °C): Form II
XRPD ([2]; EtOAc/cyclohexane (50:50 v/v), 50 °C): Form II
XRPD ([2]; EtOAc/cyclohexane (85:15 v/v), 5 °C): Form II
XRPD ([2]; EtOAc/cyclohexane (85:15 v/v), 50 °C): Form II
XRPD ([2]; EtOH, 5 °C): Form II
XRPD ([2]; EtOH, 50 °C): Form II
XRPD ([2]; EtOH/water (15/85 v/v), 50 °C): Form II
XRPD ([2]; EtOH/water (85:15 v/v), 50 °C): Form II
XRPD ([2]; MIBK, 5 °C): Form II
XRPD ([2]; MIBK, 50 °C): Form II
XRPD ([2]; Toluene, 50 °C): Form II
XRPD ([2]; acetonitrile, 5 °C): Form II
XRPD ([2]; acetonitrile, 50 °C): Form II
Structure (SMILES): C[C@H]1CC[C@H](N2CC(=O)N(Cc3ccc(F)c(F)c3)C3(CN(C=O)C3)C2=O)CC1 [Forms I and II]

XRPD ([3]; LAG gum/brittle material after drying in-vacuo, solvent EtOH/water 97:3 v/v): Form II
XRPD ([3]; LAG of amorphous material, solvent 1,4-dioxane/water 99:1 v/v): Form II
XRPD ([3]; LAG of amorphous material, solvent 1-PrOH/water 98:2 v/v): Form I
XRPD ([3]; LAG of amorphous material, solvent 15% v/v water in 1-PrOH): Form II
XRPD ([3]; LAG of amorphous material, solvent 15% v/v water in 2-PrOH): Form II
XRPD ([3]; LAG of amorphous material, solvent 15% v/v water in DMSO): Form I
XRPD ([3]; LAG of amorphous material, solvent 15% v/v water in EtOH): Form II
XRPD ([3]; LAG of amorphous material, solvent 15% v/v water in MeOH): Form II
XRPD ([3]; LAG of amorphous material, solvent 15% v/v water in acetone): Form I
XRPD ([3]; LAG of amorphous material, solvent 50% v/v water in 1-PrOH): Form II
XRPD ([3]; LAG of amorphous material, solvent 50% v/v water in DMSO): Form I
XRPD ([3]; LAG of amorphous material, solvent 50% v/v water in EtOH): Form I
XRPD ([3]; LAG of amorphous material, solvent 50% v/v water in acetone): Amorphous
XRPD ([3]; LAG of amorphous material, solvent 80% v/v water in 2-BuOH): Form I
XRPD ([3]; LAG of amorphous material, solvent 85% v/v water in 2-PrOH): Form I
XRPD ([3]; LAG of amorphous material, solvent 85% v/v water in acetone): Amorphous
XRPD ([3]; LAG of amorphous material, solvent 95% v/v water in 2-BuOH): Form I
XRPD ([3]; LAG of amorphous material, solvent Acetone/water 99:1 v/v): Form II
XRPD ([3]; LAG of amorphous material, solvent Acetonitrile/water 1:1 v/v): Form II
XRPD ([3]; LAG of amorphous material, solvent MeOH/water 97:3 v/v): Form II
Structure (SMILES): C[C@H]1CC[C@H](N2CC(=O)N(Cc3ccc(F)c(F)c3)C3(CN(C=O)C3)C2=O)CC1
